Molecules are shown by their SMILES.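 96-well plates; 48 h exposure; 5 concentrations. Endpoints by linear interpolation between flanking doses. Not reached: highest tested concentration assigned. The concentration for full growth arrest is given as TGI.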

Among the test systems are EKVX NSCLC; HCC-2998 colon; HCT-15 colon; IGROV1 ovarian; NCI-H226 lung; NCI-H23 lung; NCI-H460 lung; OVCAR-4 ovarian; RXF 393 renal; SK-MEL-28 melanoma; SNB-19 CNS; SNB-75 CNS; SR leukemia; TK-10 renal; UACC-257 melanoma; UACC-62 melanoma; CCRF-CEM leukemia; HL-60(TB) leukemia; LOX IMVI melanoma; MDA-MB-435.
What all share (test): DTP human tumour cell line panel, 48 h

Usually TGI stands for the concentration at which net growth stops. Read a low TGI as more potent growth arrest. As for `CC(=O)OCC1OC(OC2C(COC(C)=O)OC(Sc3ccccc3C)C(OC(C)=O)C2OC(C)=O)C(OC(C)=O)C(OC(C)=O)C1OC(C)=O` (stereo not drawn), the TGI in the experiment with EKVX NSCLC, with HCC-2998 colon, in the experiment on HCT-15 colon, in the experiment on IGROV1 ovarian, with NCI-H226 lung and in the experiment on NCI-H23 lung was over 100 µM in each case. Further, the TGI in the experiment on NCI-H460 lung, in the experiment on OVCAR-4 ovarian, in the experiment on RXF 393 renal, with SK-MEL-28 melanoma, in the experiment on SNB-19 CNS and with SNB-75 CNS was over 100 µM throughout. Also, the TGI with SR leukemia, with TK-10 renal, in the experiment with UACC-257 melanoma and with UACC-62 melanoma was over 100 µM throughout.
Turning to `COc1cc2cc(C(=O)N3CC(CCl)c4ccc([N+](=O)[O-])cc43)[nH]c2c(OC)c1OC` (stereo not drawn), the concentration for total growth inhibition (TGI) in the experiment with CCRF-CEM leukemia was over 100 µM; in the experiment on EKVX NSCLC, 67.2 µM; with HCC-2998 colon, over 100 µM; with HCT-15 colon it was over 100 µM; in the experiment on HL-60(TB) leukemia it was over 100 µM; in the experiment with IGROV1 ovarian it was over 100 µM. Moreover, the TGI in the experiment on LOX IMVI melanoma, with MDA-MB-435, in the experiment on NCI-H23 lung, in the experiment on OVCAR-4 ovarian, in the experiment on RXF 393 renal and in the experiment on SK-MEL-28 melanoma was over 100 µM in each case. The TGI with SNB-19 CNS, in the experiment with SNB-75 CNS, in the experiment on TK-10 renal, with UACC-257 melanoma and with UACC-62 melanoma was over 100 µM each time.
Regarding `COc1ccc(C(=O)c2c3cc(OC)c(OC)c(OC)c3cc[n+]2C)cc1`, the TGI was 71.2 µM in the experiment on CCRF-CEM leukemia; over 100 µM with EKVX NSCLC; 98.8 µM with HCC-2998 colon; over 100 µM in the experiment with IGROV1 ovarian; 65.2 µM with NCI-H226 lung; 66.5 µM in the experiment with NCI-H23 lung. Also, the TGI is over 100 µM with NCI-H460 lung; over 100 µM with RXF 393 renal; over 100 µM in the experiment on SK-MEL-28 melanoma; over 100 µM in the experiment on SNB-19 CNS; 95.7 µM in the experiment on SNB-75 CNS; over 100 µM with SR leukemia. For the same compound, the TGI in the experiment on TK-10 renal is over 100 µM.
In the case of `CN(C)C=Nc1c2ccccc2nc2ccccc12`, the TGI was found to be 21.2 µM in the experiment with CCRF-CEM leukemia; 29.1 µM in the experiment with EKVX NSCLC; 32.8 µM with HCT-15 colon; 18.2 µM with HL-60(TB) leukemia; 26.3 µM with IGROV1 ovarian; 7.13 µM with LOX IMVI melanoma. In addition, the TGI was 15.1 µM with MDA-MB-435; 9.06 µM in the experiment on NCI-H226 lung; 15.8 µM with NCI-H23 lung; 21.1 µM in the experiment on OVCAR-4 ovarian; 16.4 µM in the experiment with RXF 393 renal; 5.42 µM in the experiment with SK-MEL-28 melanoma. Besides, the TGI is 17.9 µM in the experiment on SNB-19 CNS; 13.6 µM in the experiment on SNB-75 CNS; 40 µM in the experiment with TK-10 renal; 9.3 µM with UACC-257 melanoma; 7.65 µM in the experiment on UACC-62 melanoma.
Turning to `COC(=O)[C@@]1(C)C(=O)CC[C@@H]1C=O`, the TGI in the experiment on CCRF-CEM leukemia, in the experiment with EKVX NSCLC, with HCT-15 colon, in the experiment with HL-60(TB) leukemia, in the experiment on IGROV1 ovarian and in the experiment with LOX IMVI melanoma was over 100 µM throughout. For the same compound, the TGI in the experiment with NCI-H226 lung, in the experiment with NCI-H23 lung, in the experiment on NCI-H460 lung, with OVCAR-4 ovarian, with SNB-19 CNS and in the experiment on SR leukemia was over 100 µM each time. Moreover, the TGI with TK-10 renal, with UACC-257 melanoma and in the experiment with UACC-62 melanoma was over 100 µM in each case.
For `CN(C)Cc1cc(C(=O)/C=C/c2ccc(Cl)c(Cl)c2)cc(CN(C)C)c1O`, the TGI was 11.7 µM in the experiment with CCRF-CEM leukemia; 20.8 µM with EKVX NSCLC; 12.5 µM in the experiment on HCC-2998 colon; 12.7 µM in the experiment with HCT-15 colon; over 100 µM in the experiment with HL-60(TB) leukemia; 12.4 µM in the experiment with IGROV1 ovarian. Moreover, the TGI was determined as 2 µM in the experiment on LOX IMVI melanoma; 13.2 µM with MDA-MB-435; 13.5 µM with NCI-H226 lung; 19.9 µM with NCI-H23 lung; 7.9 µM in the experiment with NCI-H460 lung; 15.4 µM with OVCAR-4 ovarian. Also, the TGI with RXF 393 renal turned out to be 11.1 µM; in the experiment with SK-MEL-28 melanoma it was 10.3 µM; in the experiment on SNB-19 CNS it was 11.6 µM; in the experiment with UACC-257 melanoma, 5.1 µM.
Take `O=C(O)CC(NC(=O)/C(=C/c1ccccc1)NC(=O)c1ccccc1)C(=O)O` (stereo not drawn): the TGI in the experiment with CCRF-CEM leukemia, in the experiment on EKVX NSCLC, in the experiment on HCC-2998 colon, with HCT-15 colon, in the experiment with HL-60(TB) leukemia and with IGROV1 ovarian was over 100 µM throughout. Also, the TGI with LOX IMVI melanoma, with MDA-MB-435, in the experiment with NCI-H226 lung, in the experiment on NCI-H23 lung, in the experiment on NCI-H460 lung and with OVCAR-4 ovarian was over 100 µM each time. For the same compound, the TGI with RXF 393 renal, with SK-MEL-28 melanoma, with SNB-19 CNS, in the experiment with SNB-75 CNS, with TK-10 renal and in the experiment on UACC-257 melanoma was over 100 µM in each case. Moreover, the TGI in the experiment with UACC-62 melanoma was over 100 µM.

The values above are taken from PubChem BioAssay (NCI).
